From ChEMBL document CHEMBL1201862, “PubChem BioAssay data set” (2004)
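Method: 48-hour compound exposure of cells in 96-well plates, five concentrations, linear interpolation of endpoints. Abbreviation: GI50, concentration required for 50% inhibition of growth.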 Calls of active or inactive are those of the source. Cut-off read from the data, not from the text of the source: active = GI50 up to about 1.1 µM and inactive = higher.

What was measured:
Assay in all cases: NCI-60 cell line screen, 48 h
786-0 = test system: 786-0
A498 = test system: A498
A549 = test system: A549
BT-549 = test system: BT-549
DU-145 = test system: DU-145
HCT-116 = test system: HCT-116
HOP-92 = test system: HOP-92
M14 = test system: M14
MDA-MB-435 = test system: MDA-MB-435
NCI-H226 = test system: NCI-H226
NCI-H23 = test system: NCI-H23
NCI-H460 = test system: NCI-H460
OVCAR-3 = test system: OVCAR-3
PC-3 = test system: PC-3
RXF 393 = test system: RXF 393
SF-539 = test system: SF-539
SK-MEL-5 = test system: SK-MEL-5
SNB-75 = test system: SNB-75
U-251 = test system: U-251
UACC-62 = test system: UACC-62

| Structure (SMILES) | GI50 (786-0) | GI50 (A498) | GI50 (A549) | GI50 (BT-549) | GI50 (DU-145) | GI50 (HCT-116) | GI50 (HOP-92) | GI50 (M14) | GI50 (MDA-MB-435) | GI50 (NCI-H226) | GI50 (NCI-H23) | GI50 (NCI-H460) | GI50 (OVCAR-3) | GI50 (PC-3) | GI50 (RXF 393) | GI50 (SF-539) | GI50 (SK-MEL-5) | GI50 (SNB-75) | GI50 (U-251) | GI50 (UACC-62) |
| --- | --- | --- | --- | --- | --- | --- | --- | --- | --- | --- | --- | --- | --- | --- | --- | --- | --- | --- | --- | --- |
| CC(=O)CC(=O)Nc1ccc2ccccc2c1 | > 100 µM (inactive) | > 100 µM (inactive) | > 100 µM (inactive) | > 100 µM (inactive) | > 100 µM (inactive) | > 100 µM (inactive) | > 100 µM (inactive) | > 100 µM (inactive) | 67.9 µM (inactive) | > 100 µM (inactive) | 86.9 µM (inactive) | > 100 µM (inactive) | 34.6 µM (inactive) | > 100 µM (inactive) | > 100 µM (inactive) | 53.6 µM (inactive) | 72.4 µM (inactive) | > 100 µM (inactive) | > 100 µM (inactive) | > 100 µM (inactive) |
| Oc1c(Cl)ccc2cccnc12 | 6.18 µM (inactive) | 4.81 µM (inactive) | 3.96 µM (inactive) | 15.5 µM (inactive) | 9.73 µM (inactive) | 1.79 µM (inactive) | < 0.01 µM (active) | 3 µM (inactive) | 10.1 µM (inactive) | 5.12 µM (inactive) | 5.06 µM (inactive) | 3.4 µM (inactive) | 2.09 µM (inactive) | 4.71 µM (inactive) | 1.83 µM (inactive) | 3.4 µM (inactive) | 3.42 µM (inactive) | 11.6 µM (inactive) | 3.69 µM (inactive) | 2.24 µM (inactive) |
| O=S(=O)(Cc1cnc(O)nc1O)Cc1cnc(O)nc1O | > 100 µM (inactive) | > 100 µM (inactive) | > 100 µM (inactive) | > 100 µM (inactive) | > 100 µM (inactive) | > 100 µM (inactive) | > 100 µM (inactive) | > 100 µM (inactive) | > 100 µM (inactive) | > 100 µM (inactive) | > 100 µM (inactive) | > 100 µM (inactive) |  | > 100 µM (inactive) | > 100 µM (inactive) | > 100 µM (inactive) | > 100 µM (inactive) | > 100 µM (inactive) | > 100 µM (inactive) | > 100 µM (inactive) |
| COc1cc(/C=N/N=C2NCCCN2)ccc1O | > 100 µM (inactive) | > 100 µM (inactive) | > 100 µM (inactive) | > 100 µM (inactive) | > 100 µM (inactive) | > 100 µM (inactive) | > 100 µM (inactive) | > 100 µM (inactive) | > 100 µM (inactive) | > 100 µM (inactive) | > 100 µM (inactive) | 82.8 µM (inactive) | > 100 µM (inactive) | > 100 µM (inactive) | > 100 µM (inactive) | > 100 µM (inactive) | > 100 µM (inactive) | 30.3 µM (inactive) | > 100 µM (inactive) | > 100 µM (inactive) |
| O=C(CC(Cl)(Cl)C(Cl)(Cl)Cl)c1ccccc1 | 3.01 µM (inactive) | 18.4 µM (inactive) | 17.8 µM (inactive) | 10.7 µM (inactive) | 3.01 µM (inactive) | 2.1 µM (inactive) | 19.9 µM (inactive) | 2.62 µM (inactive) | 2.23 µM (inactive) | 3.63 µM (inactive) | 3.88 µM (inactive) | 12 µM (inactive) | 1.85 µM (inactive) | 14.4 µM (inactive) | 1.96 µM (inactive) | 16.2 µM (inactive) | 12 µM (inactive) | 15.3 µM (inactive) | 4.7 µM (inactive) | 2.74 µM (inactive) |
| CCO/N=C(/CC)c1ccc(Br)s1 | > 100 µM (inactive) | > 100 µM (inactive) | > 100 µM (inactive) | > 100 µM (inactive) | > 100 µM (inactive) | > 100 µM (inactive) | > 100 µM (inactive) | > 100 µM (inactive) | > 100 µM (inactive) | > 100 µM (inactive) | > 100 µM (inactive) | > 100 µM (inactive) | > 100 µM (inactive) | > 100 µM (inactive) | > 100 µM (inactive) | > 100 µM (inactive) | > 100 µM (inactive) | > 100 µM (inactive) | > 100 µM (inactive) | > 100 µM (inactive) |
| CC(C)(C)c1cc(/C=C(\C#N)C(=O)NCCO)cc(C(C)(C)C)c1O | 21.8 µM (inactive) | 20.3 µM (inactive) | 27.4 µM (inactive) | 25.1 µM (inactive) | 34 µM (inactive) | 16.9 µM (inactive) | 45.7 µM (inactive) | 17.1 µM (inactive) | 21.1 µM (inactive) | 19.5 µM (inactive) | 27.9 µM (inactive) | 20.7 µM (inactive) | 14.6 µM (inactive) | 18.2 µM (inactive) | 27.4 µM (inactive) | 18.3 µM (inactive) | 14.9 µM (inactive) | 31.8 µM (inactive) | 18 µM (inactive) | 13.6 µM (inactive) |
| C[C@@]12C[C@@H](c3ccccc3O1)N1Cc3ccccc3CSC1=N2 | 38.8 µM (inactive) | > 100 µM (inactive) |  | 95.9 µM (inactive) | 69.3 µM (inactive) | 49.7 µM (inactive) | > 100 µM (inactive) | 90.4 µM (inactive) | > 100 µM (inactive) | > 100 µM (inactive) | > 100 µM (inactive) | 42.8 µM (inactive) | 35.4 µM (inactive) | 83.6 µM (inactive) | > 100 µM (inactive) | 51.5 µM (inactive) | 44.4 µM (inactive) | > 100 µM (inactive) | 52.8 µM (inactive) | 81.5 µM (inactive) |
| CCS(=O)(=O)CCn1cnc2c1c(=O)n(C)c(=O)n2C | > 100 µM (inactive) | > 100 µM (inactive) | > 100 µM (inactive) | > 100 µM (inactive) | > 100 µM (inactive) | > 100 µM (inactive) | > 100 µM (inactive) | > 100 µM (inactive) | > 100 µM (inactive) | > 100 µM (inactive) | > 100 µM (inactive) | > 100 µM (inactive) | > 100 µM (inactive) | > 100 µM (inactive) | > 100 µM (inactive) | > 100 µM (inactive) | > 100 µM (inactive) | > 100 µM (inactive) | > 100 µM (inactive) | > 100 µM (inactive) |
| CC(CC(=O)O)C(C(=O)O)C(=O)O (stereo not given) | > 100 µM (inactive) | > 100 µM (inactive) | > 100 µM (inactive) | > 100 µM (inactive) | > 100 µM (inactive) | > 100 µM (inactive) | > 100 µM (inactive) | > 100 µM (inactive) | > 100 µM (inactive) | > 100 µM (inactive) | > 100 µM (inactive) | > 100 µM (inactive) | > 100 µM (inactive) | > 100 µM (inactive) | > 100 µM (inactive) | > 100 µM (inactive) | > 100 µM (inactive) | > 100 µM (inactive) | > 100 µM (inactive) | > 100 µM (inactive) |
| CCOC(=O)C(Cc1ccc(N(CCCl)CCCl)cc1)NC(=O)C(Cc1ccccc1)NC(C)=O (stereo not given) | 0.184 µM (active) | > 0.288 µM (active) | > 0.569 µM (active) | > 0.583 µM (active) | > 0.582 µM (active) | > 0.265 µM (active) | 0.621 µM (active) | 0.141 µM (active) | 0.264 µM (active) | > 1 µM (active) | 0.162 µM (active) | 0.222 µM (active) | 0.173 µM (active) | > 0.254 µM (active) | 0.106 µM (active) | 0.175 µM (active) | 0.248 µM (active) | > 1 µM (active) | > 0.316 µM (active) | 0.136 µM (active) |
| CC1(C)N/C(=C\[N+](=O)[O-])C(C)(C)N1O | > 10 µM (inactive) | > 10 µM (inactive) | > 10 µM (inactive) | > 10 µM (inactive) | > 10 µM (inactive) | > 10 µM (inactive) | > 10 µM (inactive) | > 10 µM (inactive) | > 10 µM (inactive) | > 10 µM (inactive) | > 10 µM (inactive) | > 10 µM (inactive) | > 10 µM (inactive) | > 10 µM (inactive) | > 10 µM (inactive) | > 10 µM (inactive) | > 10 µM (inactive) | > 10 µM (inactive) | > 10 µM (inactive) | > 10 µM (inactive) |
| CCOc1cc(NC(C)=O)ccc1C(=O)NN1C(=O)/C(=C/c2ccc(Cl)cc2)N=C1c1ccccc1 | 74.1 µM (inactive) | 24.9 µM (inactive) | 37.8 µM (inactive) | 47.4 µM (inactive) | 68.5 µM (inactive) | 46.1 µM (inactive) | 33.9 µM (inactive) | 48.5 µM (inactive) | 35.6 µM (inactive) | 42.8 µM (inactive) | 41.6 µM (inactive) |  | 33 µM (inactive) | 43.5 µM (inactive) | 33 µM (inactive) | 90.2 µM (inactive) | 24.2 µM (inactive) | 40.3 µM (inactive) | 55.8 µM (inactive) |  |
| CN(C)Cc1cc(C(=O)/C=C/c2ccccc2Cl)cc(CN(C)C)c1O | 7.36 µM (inactive) | 12.9 µM (inactive) | 14.9 µM (inactive) | 8.51 µM (inactive) | 12.3 µM (inactive) | 5.42 µM (inactive) | 18.1 µM (inactive) | 11.2 µM (inactive) | 13.5 µM (inactive) | 24.3 µM (inactive) | 14.5 µM (inactive) | 4.6 µM (inactive) | 7.93 µM (inactive) | 13.2 µM (inactive) | 17.1 µM (inactive) | 15.5 µM (inactive) | 11.8 µM (inactive) | 5.51 µM (inactive) | 13.8 µM (inactive) |  |
